Assay results taken from ChEMBL document CHEMBL1148077, “Stellettin A, a new triterpenoid pigment from the marine sponge Stelletta tenuis” (1994).
Values after ≈ are worked out from the molar mass of the structure shown.

Test system: P388
Assay: Cytotoxicity against mouse P388 cells
Assay type: functional
Conditions: read-out: ED50 (the source's name)

## C\C(=C/C=C/C(C)=C1/C(=O)C[C@H]2[C@@]3(C)CCC(=O)C(C)(C)[C@@H]3CC[C@]12C)c1ccc(C)c(=O)o1 [STELLETIN A]
  EC50: 1 ng/mL (≈ 2.16 nM)
